The text below walks through data of patent US9200046B2, “Reporter system for high throughput screening of compounds and uses thereof” (priority 2011, dated 2015).

Counter-ions that a name gives are not always drawn. Like-named read-outs stand apart in the source and are kept apart here.

The test addresses Nrf2-Keap1 complex (Homo sapiens, UniProt Q14145). Put plainly: cell-based. The settings on record: for activation at 16 µM / activation at 32 µM: 3 h; for activation at 16 µM: read-out: Activation 100 nL; for activation at 32 µM: read-out: Activation 200 nL. The test is classed as cell-based.
[1] abbreviates: Table 2, 100 nL compound, screen run at 16 and 32 μM, 3 hr.
Setting [2] is: Table 2, 200 nL compound, screen run at 16 and 32 μM, 3 hr.
Where [3] appears, read: Table 1A, 100 nL compound, screen run at 16 and 32 μM, 3 hr.
[4] abbreviates: Table 1A, 200 nL compound, screen run at 16 and 32 μM, 3 hr.

Chain of Nrf2-Keap1 complex (Q14145 whole entry, one chain of several): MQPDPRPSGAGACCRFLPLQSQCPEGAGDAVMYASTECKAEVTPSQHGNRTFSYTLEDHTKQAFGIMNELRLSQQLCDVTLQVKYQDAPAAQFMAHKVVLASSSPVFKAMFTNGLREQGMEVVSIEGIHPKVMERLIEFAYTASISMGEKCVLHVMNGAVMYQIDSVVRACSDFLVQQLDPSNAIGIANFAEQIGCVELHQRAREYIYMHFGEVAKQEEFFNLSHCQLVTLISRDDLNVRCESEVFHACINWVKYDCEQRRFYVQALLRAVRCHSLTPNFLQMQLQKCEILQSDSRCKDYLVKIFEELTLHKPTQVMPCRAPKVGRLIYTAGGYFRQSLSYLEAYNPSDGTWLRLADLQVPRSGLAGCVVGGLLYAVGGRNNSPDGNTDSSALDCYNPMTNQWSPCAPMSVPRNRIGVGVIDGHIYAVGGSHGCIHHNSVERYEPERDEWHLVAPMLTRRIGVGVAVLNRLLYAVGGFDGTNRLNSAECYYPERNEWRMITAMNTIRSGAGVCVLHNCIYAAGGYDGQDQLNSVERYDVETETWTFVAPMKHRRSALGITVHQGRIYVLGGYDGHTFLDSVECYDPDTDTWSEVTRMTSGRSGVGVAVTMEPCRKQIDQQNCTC

For the compound `O=C1C[C@@H](c2ccc(O)c(O)c2)Oc2cc(O)cc(O)c21` [ERIODYCTOL], the “Activation 100 nL” value worked out at 76% and the “Activation 200 nL” value worked out at 18%. Under setting [1], the “100 nL (luminescence)” value is listed as 1028. For the same compound, the “200 nL (luminescence)” value under setting [2] amounted to 768.
The like results for `CC(=O)O[C@@H]1CC2C(C)(C)C=CC(=O)[C@]2(C)C2CC[C@@]3(C)[C@H](c4ccoc4)OC(=O)C4OC43[C@@]21C` (stereo partly drawn) [ISOGEDUNIN] were, in that order, 155%, 188%, 2724 and 3188.
For the compound `Oc1cccc2cccnc12` [8-hydroxyquinoline], the “Neh2-luc reporter activation” value is listed as 60%.
As to `CC1(C)C=CC(=O)[C@@]2(C)C1CC(=O)[C@]1(C)C2CC[C@@]2(C)[C@H](c3ccoc3)OC(=O)C3OC321` (stereo partly drawn) [DEACETOXY-7-OXISOGEDUNIN], the “Activation 100 nL” value is on record as 170% and the “Activation 200 nL” value amounted to 178%. In addition, under setting [1], the “100 nL (luminescence)” value is on record as 2960. Besides, the “200 nL (luminescence)” value under setting [2] was determined as 3040.
Consider `COc1c(C)c2c(c(O)c1C/C=C(\C)CCC(=O)O)C(=O)OC2` [MYCOPHENOLICACID, reference compound], for which the activation at 16 µM came out at 26% and the activation at 32 µM was 84%. Under setting [1], the “100 nL (luminescence)” value turned out to be 904. For the same compound, under setting [2], the “200 nL (luminescence)” value was found to be 1428.
As for `C[C@]12C=CC(=O)C=C1CC[C@@H]1[C@@H]2CC[C@]2(C)C(=O)CC[C@@H]12` [ANDROSTA-1,4-DIEN-3,17-DIONE], the activation at 16 µM worked out at 81% and the activation at 32 µM came to 70%. Also, the “100 nL (luminescence)” value under setting [1] is given as 1444. Besides, the “200 nL (luminescence)” value under setting [2] came to 2048.
Turning to `CC(=O)O[C@H]1C[C@@H](OC(C)=O)C(C)(C)[C@@H]2CC(=O)[C@]3(C)[C@H](CC[C@@]4(C)[C@H](c5ccoc5)OC(=O)[C@H]5O[C@]543)[C@@]12C` [7-DEACETOXY-7-OXOKHIVORIN], the “Activation 100 nL” value was 168% and the “Activation 200 nL” value is recorded as 128%. Further, the “100 nL (luminescence)” value under setting [1] came out at 2924. Also, under setting [2], the “200 nL (luminescence)” value came to 2284.
On to `C=C1CC[C@@H]2[C@](C)(CO)[C@H](O)CC[C@@]2(C)[C@@H]1C/C=C1/C(=O)OC[C@H]1O` [ANDROGRAPHOLIDE], for which the “100 nL (luminescence)” value is 1404, the “200 nL (luminescence)” value turned out to be 708, the activation at 16 µM was determined as 78% and the activation at 32 µM came to 11%.
`CC(=O)O[C@@H]1CC2C(C)(C)C(=O)C3OC3[C@]2(C)C2CC[C@@]3(C)[C@H](c4ccoc4)OC(=O)C4OC43[C@@]21C` (stereo partly drawn) [EPOXYGEDUNIN]: the “Activation 100 nL” value stood at 28% and the “Activation 200 nL” value is listed as 43%. In addition, under setting [1], the “100 nL (luminescence)” value was determined as 784. In addition, the “200 nL (luminescence)” value under setting [2] is listed as 988.
Regarding `C[C@]12C=CC(=O)C=C1CC[C@@H]1[C@@H]2[C@@H](O)C[C@@]2(C)[C@H]1CC[C@]2(O)C(=O)CO` [PREDNISOLONE, reference compound], the “100 nL (luminescence)” value stood at 864, the “200 nL (luminescence)” value is 1452, the activation at 16 µM turned out to be 42% and the activation at 32 µM turned out to be 53%.
Regarding `S=c1ccss1` [3H-1,2-DITHIOLE-3-THIONE], the activation at 16 µM came to 295% and the activation at 32 µM turned out to be 127%. Further, the “100 nL (luminescence)” value under setting [1] came to 5416. The “200 nL (luminescence)” value under setting [2] is listed as 2832.
As to `O=[N+]([O-])c1cccc2c(Br)n[nH]c12` [3-BROMO-7-NITROINDAZOLE], the “hit strength in the screen (words)” value is “modest hits”, the activation at 16 µM was determined as 30% and the activation at 32 µM was 8%. Under setting [3], the “100 nL (luminescence)” value turned out to be 632. For the same compound, the “200 nL (luminescence)” value under setting [4] is recorded as 512.
Regarding `CC(=O)O[C@@H]1C[C@H]2C(C)(C)C(=O)CC[C@]2(C)[C@H]2CC[C@@]3(C)[C@H](c4ccoc4)OC(=O)[C@H]4O[C@]43[C@@]21C` [DIHYDROGEDUNIN], the activation at 16 µM came to 112% and the activation at 32 µM stood at 114%. Besides, the “100 nL (luminescence)” value under setting [1] worked out at 1866. The “200 nL (luminescence)” value under setting [2] was found to be 3068.
`O=C(O)c1cc(O)c2c(c1)[C@@H]([C@H]1c3cc(C(=O)O)cc(O)c3C(=O)c3c(O[C@H]4O[C@H](CO)[C@@H](O)[C@H](O)[C@H]4O)cccc31)c1cccc(O[C@H]3O[C@H](CO)[C@@H](O)[C@H](O)[C@H]3O)c1C2=O` [SENNOSIDEA, reference compound]: the “100 nL (luminescence)” value is listed as 3204, the “200 nL (luminescence)” value stood at 4, the activation at 16 µM worked out at 141% and the activation at 32 µM was -24%.
With `NC(=O)c1ccc[n+]([C@@H]2O[C@H](COP(=O)([O-])OP(=O)(O)OC[C@H]3O[C@@H](n4cnc5c(N)ncnc54)[C@H](O)[C@@H]3O)[C@@H](O)[C@H]2O)c1` [NADIDE, reference compound], the activation at 16 µM turned out to be 31% and the activation at 32 µM is 16%. Further, under setting [3], the “100 nL (luminescence)” value came to 640. In addition, under setting [4], the “200 nL (luminescence)” value was found to be 712.
Turning to `CC(=O)OC[C@@]1(O)C[C@@]23CC[C@@H]4c5ccoc5CC[C@@]4(C)[C@@H]2CC[C@@H]1C3` [CAFESTOLACETATE], the activation at 16 µM turned out to be 81% and the activation at 32 µM came out at 67%. The “100 nL (luminescence)” value under setting [1] amounted to 1452. Moreover, the “200 nL (luminescence)” value under setting [2] came to 1976.
In the case of `CC(=O)OC[C@H]1O[C@@H]([S-])[C@H](OC(C)=O)[C@@H](OC(C)=O)[C@@H]1OC(C)=O.CCP(CC)CC.[Au+]` [auranofin, reference compound], the “Neh2-luc reporter activation” value was 200%.
As for `O=C(O)/C=C/c1ccc(O)c(O)c1` [[…]], the activation at 16 µM amounted to 50% and the activation at 32 µM came to 61%. The “100 nL (luminescence)” value under setting [1] amounted to 1040. Further, the “200 nL (luminescence)” value under setting [2] is 1840.
As to `O=C(CC[N+](=O)[O-])OC[C@H]1O[C@@H](O)[C@H](OC(=O)CC[N+](=O)[O-])[C@@H](OC(=O)CC[N+](=O)[O-])[C@@H]1OC(=O)CC[N+](=O)[O-]` [[…]], the “Activation 100 nL” value was 75% and the “Activation 200 nL” value turned out to be 40%. Further, the “100 nL (luminescence)” value under setting [1] is given as 1020. Moreover, the “200 nL (luminescence)” value under setting [2] was determined as 1268.
In the case of `COc1cc(O)cc(OC)c1OC` [ANTIAROL], the activation at 16 µM is 74% and the activation at 32 µM was 81%. Moreover, under setting [1], the “100 nL (luminescence)” value was determined as 1016. The “200 nL (luminescence)” value under setting [2] is reported as 2248.
`CC(=O)C(=Cc1ccccc1)CC(=O)O`: the “Activation 100 nL” value is given as 78% and the “Activation 200 nL” value worked out at 43%. Also, under setting [1], the “100 nL (luminescence)” value is reported as 1048. Moreover, under setting [2], the “200 nL (luminescence)” value was found to be 1348.
On to `CCC(C)C(=O)OC1[C@@H]2CC3=C4CC(=O)O[C@@H](c5ccoc5)[C@]4(C)CCC3[C@@](C)(C2=O)[C@@H](CC(=O)OC)C1(C)C` (stereo partly drawn) [KHAYASIN], for which the activation at 16 µM was found to be 90% and the activation at 32 µM came to 105%. The “100 nL (luminescence)” value under setting [1] was found to be 1736. Also, the “200 nL (luminescence)” value under setting [2] was determined as 1928.
For `O=C(/C=C/c1ccccc1)c1ccc(O)cc1` [4′-HYDROXYCHALCONE], the “100 nL (luminescence)” value turned out to be 3674, the “200 nL (luminescence)” value is given as 1488, the activation at 16 µM amounted to 217% and the activation at 32 µM worked out at 76%.
For the compound `C=C[C@@](C)(O)CCC1C(=C)CCC2[C@@](C)(CO)CCC[C@]12C` (stereo partly drawn) [EPI(13)TORULOSOL], the “Activation 100 nL” value came out at 27% and the “Activation 200 nL” value worked out at 0%. For the same compound, the “100 nL (luminescence)” value under setting [1] is 724. For the same compound, the “200 nL (luminescence)” value under setting [2] turned out to be 448.
On to `NCCc1cc(O)c(O)cc1O` [OXIDOPAMINEHYDROCHLORIDE], for which the activation at 16 µM turned out to be 107% and the activation at 32 µM stood at 124%. Moreover, the “100 nL (luminescence)” value under setting [1] turned out to be 1676. Under setting [2], the “200 nL (luminescence)” value is 2936.
For the compound `N.N.[Cl][Pt][Cl]` [CISPLATIN, reference compound], the “Activation 100 nL” value stood at 36% and the “Activation 200 nL” value amounted to 90%. Further, the “100 nL (luminescence)” value under setting [1] was 1100. Besides, the “200 nL (luminescence)” value under setting [2] turned out to be 1496.
Turning to `CN1CCc2cccc3c2[C@H]1Cc1ccc(O)c(O)c1-3` [APOMORPHINEHYDROCHLORIDE, reference compound], the activation at 16 µM came out at 44% and the activation at 32 µM was -3%. The “100 nL (luminescence)” value under setting [1] stood at 880. Also, under setting [2], the “200 nL (luminescence)” value worked out at 266.
With `COc1c(O)cc2oc3cc(O)c(CC=C(C)C)c(O)c3c(=O)c2c1CC=C(C)C` [alpha-MANGOSTIN], the “100 nL (luminescence)” value came to 736, the “200 nL (luminescence)” value is 16, the “Activation 100 nL” value stood at 28% and the “Activation 200 nL” value was −19%.
On to `CC1(C)C(=O)C=C[C@]2(C)[C@H]3CC[C@@]4(C)[C@H](c5ccoc5)OC(=O)[C@H]5O[C@]54[C@]3(C)C(=O)C[C@@H]12` [DEACETOXY-7-OXOGEDUNIN], for which the “Activation 100 nL” value is reported as 45% and the “Activation 200 nL” value came to 8%. In addition, the “100 nL (luminescence)” value under setting [1] stood at 1048. Moreover, the “200 nL (luminescence)” value under setting [2] came to 448.
Regarding `O=C1C=C(O)C(=O)c2ccccc21` [LAWSONE], the “100 nL (luminescence)” value amounted to 840, the “200 nL (luminescence)” value stood at 1140, the activation at 16 µM came out at 54% and the activation at 32 µM stood at 34%.
The corresponding values for `CC1CCC(NC(=O)N(CCCl)N=O)CC1` (stereo not drawn) [SEMUSTINE, reference compound] are 1172, 3000, 39% and 144%.
The like results for `C[C@]12CCC(=O)C=C1C=C[C@@H]1[C@@H]2CC[C@@]2(C)[C@H]1CC[C@@]21CCC(=O)O1` [CANRENONE, reference compound] were, in that order, 900, 832, 25% and 23%.
